Assay results reported in paper PMC8151276, “An Integrated Approach toward NanoBRET Tracers for Analysis of GPCR Ligand Engagement” (Molecules, 2021).

Assays:
[1] = target: T1, P2RY14 (Homo sapiens, UniProt Q15391); experiment: NanoBRET screen HiBiT-P2RY14 in HEK293; format: binding; details: P2RY14
T1 construct: purchased Promega (in-house HiBiT-GPCR construct library, NanoBRET)
T1 sequence (Q15391 1-338): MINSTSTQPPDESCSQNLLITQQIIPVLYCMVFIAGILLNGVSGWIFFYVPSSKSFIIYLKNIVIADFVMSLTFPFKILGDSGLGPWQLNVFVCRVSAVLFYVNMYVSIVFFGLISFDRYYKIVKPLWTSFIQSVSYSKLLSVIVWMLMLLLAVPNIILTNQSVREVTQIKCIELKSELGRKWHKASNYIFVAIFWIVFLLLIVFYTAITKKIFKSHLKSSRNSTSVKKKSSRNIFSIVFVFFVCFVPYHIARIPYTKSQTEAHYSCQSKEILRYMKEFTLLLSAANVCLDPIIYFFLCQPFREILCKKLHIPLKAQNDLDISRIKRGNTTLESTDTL
Experimental: (§1) Each tracer candidate was screened across the entire library of HiBiT-GPCR constructs using NanoBRET as the detection modality. As depicted in Figure 4A, the specificity of interactions was evaluated through decrease in BRET due to competitive displacement of a bound tracer by excess parental compound. Each tracer was analyzed for binding to each HiBiT-GPCR fusion in the absence and in the presence of competing parental compound. Briefly, HEK293 cells were transfected with HiBiT-GPCR constructs diluted into promoterless DNA to reduce expression and maximize translocation to the cell surface. Each tracer candidate was then screened at concentrations of 1 μM and 0.1 μM across cells expressing these fusions. Cells were treated for 1.5 h with tracer either alone or in the presence of 20 μM competing parental compound (i.e., control). BRET was measured upon addition of purified LgBiT and subsequent complementation with HiBiT genetically fused to a GPCR. The specificity of interactions was assessed through a decrease in BRET signal due to competitive displacement of the bound tracer. To further gauge the robustness of these interactions, the fold response over the control (i.e., BRETtracer/BRETcontrol) was calculated. We chose a 1.5-fold response, which translates to ≥7-fold signal over noise as the minimal threshold required to score an interaction as positive. […]. Below we highlight the screening results obtained for our exemplary fluorescent tracers based on Clozapine, Amitriptyline and AZD1283.
(§2) HiBiT-GPCR DNA constructs were diluted in 10 mM Tris pH 8 to a final concentration of 0.01 μg/μL, arrayed in 96-well plates and stored at −20 °C. For transfection, HEK293 cells were suspended in Opti-MEM (without phenol red) supplemented with 2% fetal bovine serum (Seradigm) and 100 units/mL penicillin–streptomycin (Gibco) at a final concentration of 220,000 cells/mL and dispensed into white 96-well plates at 90 μL/well. Subsequent transfections and screens were carried using an Agilent Bravo Automated Liquid Handling Platform. First, the 96-well HiBiT DNA arrays were diluted 25-fold in Opti-MEM (without serum or phenol red) to a final concentration of 0.0004 μg/μL and 20 μL of the diluted DNAs were transferred into new 96-well plates. Next, promoterless carrier DNA (1 μg/μL) was diluted 25-fold (0.04 μg/μL) and then dispensed into the diluted arrays at 20 μL/well. Following brief mixing, Viafect transfection reagent (Promega) diluted 16-fold into Opti-MEM was dispensed into the plates at 40 μL/well. After mixing by pipetting, plates were incubated for 10 min on the pipetting station deck. The DNA-transfection reagent complexes were then added to plates containing cells. To facilitate the screen, 10 μL of DNA-transfection reagent complexes were added in duplicates to the top 4 and bottom 4 rows, resulting in two identical 48-well arrays per plate. Plates with transfected cells were incubated for 18–20 h at 37 °C/5% CO2. A screen of each tracer across the entire library using two different concentrations requires duplicate plates of transfected cells. Depending on the number of tracers being screened, transfections can be scaled up using the same ratios. The next day, for each tracer, four 20× screening solutions in tracer dilution buffer (Promega) were prepared: two duplicates at final concentration of 20 μM and two duplicates at a final concentration of 2 μM. A competing unmodified compound was added to one of each duplicate at a final concentration of 400 μM. The four resulting solutions were diluted 4-fold in Opti-MEM without serum or phenol red to generate 5× solutions (5 µM and 0.5 µM tracer +/− 100 μM competing compound). To screen the library, a BioTek MultiFlo FX liquid dispenser was used to dispense 22.5 µL of tracer solution to the top 4 rows and 22.5 µL tracer + competing compound solution to the 4 bottom rows. Plates were briefly mixed on an orbital shaker and incubated for 1.5 h at room temperature. […]

[2] = target: T2, NMUR2 (Homo sapiens, UniProt Q9GZQ4); experiment: NanoBRET screen HiBiT-NMUR2 in HEK293; format: binding; details: NMUR2
T2 construct: purchased Promega (in-house HiBiT-GPCR construct library, NanoBRET)
Experimental: as §1, §2

T2 sequence (Q9GZQ4 whole entry): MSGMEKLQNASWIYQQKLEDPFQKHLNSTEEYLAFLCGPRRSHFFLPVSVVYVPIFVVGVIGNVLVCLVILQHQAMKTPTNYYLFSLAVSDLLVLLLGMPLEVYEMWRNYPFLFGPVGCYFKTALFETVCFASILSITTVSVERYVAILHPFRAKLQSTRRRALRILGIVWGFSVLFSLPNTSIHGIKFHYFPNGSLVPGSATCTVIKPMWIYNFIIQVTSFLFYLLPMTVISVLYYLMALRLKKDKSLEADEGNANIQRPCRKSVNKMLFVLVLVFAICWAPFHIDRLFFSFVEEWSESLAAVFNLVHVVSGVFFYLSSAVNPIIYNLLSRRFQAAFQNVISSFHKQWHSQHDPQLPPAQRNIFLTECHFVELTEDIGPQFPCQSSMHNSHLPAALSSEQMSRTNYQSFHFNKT

In the case of `CCCn1c(=O)c2[nH]c(-c3ccc(OCC(=O)NCCNC(=O)CCOCCNC(=O)c4ccc(CNC(=O)CCc5ccc6n5[B-](F)(F)[N+]5=C(c7ccc[nH]7)C=CC5=C6)cc4)cc3)nc2n(CCC)c1=O` [XAC-3-NB590], the “NanoBRET Fold Response” value ([1]; tracer 0.1μM) was 0.59, the “NanoBRET Fold Response” value ([1]; tracer 1μM) was 1.36 and the “NanoBRET Fold Response” value ([2]; tracer 0.1μM) was 1.11. The “NanoBRET Fold Response” value ([2]; tracer 1μM) was 0.89.
